Marks after values point to notes of the source that are not given here. No end group written: not given here.
Experiments:
[1] = target: T1, Angiotensin-converting enzyme (ACE) (Sus scrofa, UniProt F1RRW5); experiment: ACE inhibition activity determination (HHL substrate, colorimetric); type: biochemical, pig; settings: for ACE inhibition % (before GI digestion): sample 0.1 mg of peptides/ml, 5 mM HHL, pH 8.3, 37°C, 30 min, absorbance 410 nm, mean ± SD, n = 3
T1 construct: Angiotensin-converting enzyme (ACE) was extracted and purified from pig lung tissues; from tissue; host or cells: pig lung
T1 sequence (F1RRW5 34-1309): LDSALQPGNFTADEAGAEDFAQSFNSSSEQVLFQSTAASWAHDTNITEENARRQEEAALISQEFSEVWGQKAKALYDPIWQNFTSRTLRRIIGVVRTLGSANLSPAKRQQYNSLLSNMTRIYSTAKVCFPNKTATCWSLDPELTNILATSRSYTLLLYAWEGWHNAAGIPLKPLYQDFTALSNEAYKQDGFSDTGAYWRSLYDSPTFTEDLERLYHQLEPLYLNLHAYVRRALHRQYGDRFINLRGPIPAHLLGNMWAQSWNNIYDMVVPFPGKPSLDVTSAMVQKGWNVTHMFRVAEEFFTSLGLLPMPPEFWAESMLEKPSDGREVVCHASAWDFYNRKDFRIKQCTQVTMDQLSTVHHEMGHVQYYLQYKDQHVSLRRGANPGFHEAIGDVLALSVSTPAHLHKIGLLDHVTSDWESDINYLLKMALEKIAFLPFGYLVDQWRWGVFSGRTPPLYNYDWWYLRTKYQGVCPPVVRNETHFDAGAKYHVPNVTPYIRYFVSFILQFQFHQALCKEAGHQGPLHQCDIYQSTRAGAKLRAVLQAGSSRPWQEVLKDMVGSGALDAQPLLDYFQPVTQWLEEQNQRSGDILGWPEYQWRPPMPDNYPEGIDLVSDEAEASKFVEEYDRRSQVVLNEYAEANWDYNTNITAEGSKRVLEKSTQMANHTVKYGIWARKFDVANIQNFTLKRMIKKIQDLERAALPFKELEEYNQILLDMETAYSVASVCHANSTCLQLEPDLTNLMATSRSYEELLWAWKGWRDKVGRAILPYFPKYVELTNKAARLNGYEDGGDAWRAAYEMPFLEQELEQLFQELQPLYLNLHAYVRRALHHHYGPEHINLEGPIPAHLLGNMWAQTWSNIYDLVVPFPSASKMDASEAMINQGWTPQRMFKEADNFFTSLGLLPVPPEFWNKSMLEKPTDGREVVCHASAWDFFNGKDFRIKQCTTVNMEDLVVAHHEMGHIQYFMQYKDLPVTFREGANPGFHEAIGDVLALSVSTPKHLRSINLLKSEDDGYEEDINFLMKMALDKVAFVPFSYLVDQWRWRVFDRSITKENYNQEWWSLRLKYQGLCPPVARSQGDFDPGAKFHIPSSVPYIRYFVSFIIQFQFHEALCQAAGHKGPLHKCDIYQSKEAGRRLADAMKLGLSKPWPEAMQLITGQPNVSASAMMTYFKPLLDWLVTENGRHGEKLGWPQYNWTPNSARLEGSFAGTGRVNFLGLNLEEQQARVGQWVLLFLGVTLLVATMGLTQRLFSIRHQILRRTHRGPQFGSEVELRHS
Source text: Moth bean seeds (MBS-27 variety) were obtained from Mahatma Phule Krishi Vidyapeeth (MPKV), Rahuri, Maharashtra. Angiotensin-converting enzyme (ACE) was extracted and purified from pig lung tissues according to the protocol described by Abdulazeez Mansurah et al. ([19]). Pig lung tissues were brought from a local slaughterhouse (Deonar Abattoir, Mumbai). Pepsin (1,000 U/mg, from porcine), pancreatin 3x (3 NF/USP, from porcine pancreas), trypsin (>2,000 U/g, from bovine pancreas), and papain (from papaya latex) were purchased from HiMedia Laboratories Pvt. Ltd., Mumbai. HHL (N-Hippuryl- His- Leu hydrate) and captopril were purchased from Sigma–Aldrich Chemicals Private Limited, Bangalore, India. All the chemicals used were of analytical grade.
(§1) Angiotensin-converting enzyme (ACE) inhibition activity was performed according to Jimsheena et al. ([23]), with minor modifications. In brief, 10 μl (0.1 mg of peptides/ml) of the sample was first incubated with 10 μl of ACE at 37°C for 5 min. Later, 30 μl of 50 mM phosphate buffer (pH 8.3) containing 150 mM NaCl and 50 μl of 5 mM HHL was added and mixed completely. The reaction mixture was kept for incubation in a water bath at 37°C for 30 min. The reaction was terminated by adding 100 μl of 1 M HCl. Subsequently, 200 μl of pyridine and 100 μl of benzene sulfonyl chloride (BSC) were added sequentially to the solution and vortexed for 10 s. The reaction mixture was, then, cooled on ice, and the absorbance was measured at 410 nm using a spectrophotometer. Captopril was used as a reference for comparison. ACE inhibition activity (%) was calculated as follows:
ACE inhibition % = (1− As/Ac) x 100
where As is the absorbance of the mixture containing the sample, and Ac is the absorbance of the mixture without inhibitor at 410 nm. IC50 values were determined for each fraction using a plot of ACE activity vs. inhibitor concentration.

[2] = target: T1, Angiotensin-converting enzyme (ACE); experiment: Gastrointestinal digestion simulation (SGF, SIF) followed by ACE inhibition assay; type: in vitro ADME, pig; design: increase in ACE inhibitory activity after intestinal digestion simulation / increase in ACE inhibitory activity due to cleavage by pepsin / ACE inhibitory activity decreased to (% of initial) following intestinal digestion simulation: concentration or dose not given beside the values; settings: for ACE inhibition (%) after SGF: after gastric phase: simulated gastric fluid, pepsin 2,000U/ml, pH 2.5, 2 h; for ACE inhibition (%) after SGF / ACE inhibition (%) After SIF: 37°C, read-out ACE inhibition, mean ± SD, n = 3; for ACE inhibition (%) After SIF: after intestinal phase: simulated intestinal fluid, pancreatin 100U/ml, bile juice, pH 8, 2 h, following gastric phase; for increase in ACE inhibitory activity due to cleavage by pepsin: after gastric phase
Procedure: as §1, with “follows: […]” for “follows:”
The peptides synthesized were subjected to GI digestion simulation, as per the procedure described by Minekus et al. ([24]), with minor modifications. Bile juice was prepared according to Versantvoort et al. ([25]). Three steps of digestion (the mouth, stomach, and small intestine) were simulated, and the fluid was prepared to mimic physiological conditions. The composition of the simulated fluid is presented in Supplementary Table S2. The pH of the solution was adjusted by using 5 N NaOH and 6 N HCl. The digestion process was carried out using a stirring water bath at 37°C. Sampling was carried out after each step of digestion, and % ACE inhibition and degree of hydrolysis were calculated. Enzymes were inactivated by heating the fraction at 90°C for 10 min., followed by centrifugation at 10,000 g at 4°C for 15 min. The supernatant obtained was stored at −20°C for later study.

[3] = target: T1, Angiotensin-converting enzyme (ACE); experiment: ACE inhibition kinetics (Lineweaver-Burk plot, Dixon plot); type: biochemical, pig; settings: HHL 1 to 7.5 mM, peptide 5 and 10 μM
Procedure: The mechanism of ACE inhibition by a peptide showing the lowest IC50 value was identified by the rate of HHL hydrolysis measured over a range of concentrations (1 to 7.5 mM) by varying concentrations of inhibitory peptide (5 and 10 μM). The analysis was carried out by using a double reciprocal Lineweaver–Burk plot, to determine the mode of ACE inhibition, Michaelis–Menten constant (Km), and the maximum velocity (Vmax). The inhibitor constant (Ki) was determined by the Dixon plot.

[4] = relative to activity before GI digestion

ACE inhibition % (before GI digestion) ([1]; synthesized peptide) | ACE inhibition (%) after SGF [2] | ACE inhibition (%) After SIF [2] | Substance | further results
11.8 ± 2.9^i % | 9.8 ± 2.8^i % | 14.5 ± 0.5^h % | AENNQR [pp-25] | –
93.4 ± 1.7^a % | 90.5 ± 4.6^a % | 59.6 ± 0.3^b % | FPPPKVIQ [pp-28] | IC50 ([1]; purification steps of ACE-inhibitory peptide, read-out: IC50 (μg/ml) (converted)): 216 nM; IC50 ([1]; synthesized peptide, before GI digestion, read-out: IC50 of ACE inhibition): 240 nM; IC50 ([2]; after GI digestion simulation (digestion by trypsin in intestinal phase)): 20000 nM; ACE inhibition (%) After SIF ([2]; listed as FPPPKVIQ): ~ 59%; Ki [3]: 810 nM
21.8 ±2.3^g % | 24.0 ± 5.7^g % | 7.6 ± 1.2^j % | GDTGRQQ [pp-1] | ACE inhibitory activity decreased to (% of initial) following intestinal digestion simulation [2, 4]: 35%
34.3 ± 7.7^e % | 31.1 ± 0.7^e % | 6.2 ± 4.3^j % | HPGDDKS [pp-30] | ACE inhibitory activity decreased to (% of initial) following intestinal digestion simulation [2, 4]: 18%
8.2 ± 4.3^i % | 9.6 ± 0.5^i % | 15.3 ± 3.6^h % | HVDSGK [pp-18] | increase in ACE inhibitory activity after intestinal digestion simulation [2, 4]: 86%
36.0 ± 1.9^e % | 30.0 ± 0.4^f % | 33.6 ± 3.2^f % | IEPLPPR [pp-16] | –
55.9 ± 1.3^c % | 51.0 ± 3.4^c % | 52.3 ± 3.8^c % | VEPLPPR [pp-15] | –

Continued, substance first:

Substance | ACE inhibition % (before GI digestion) ([1]; synthesized peptide) | ACE inhibition (%) after SGF [2] | ACE inhibition (%) After SIF [2] | further results
ATDETGSK [pp-33] | 13.1 ± 4.7^h % | 15.1 ± 0.6^h % | 15.6 ± 1.9^h % | –
HDTGRQH [pp-8] | 12.1 ±5.5^i % | 11.8 ± 1.3^i % | 21.3 ± 0.3^g % | –
ISGGSSR [pp-39] | 23.6 ± 6.9^g % | 21.1 ± 0.8^g % | 19.0 ± 1.8^g % | –
LTAEHPVV [pp-44] | 6.4 ± 1.0^j % | 21.5 ± 3.4^g % | 18.8 ± 9.9^g % | increase in ACE inhibitory activity due to cleavage by pepsin [2, 4]: 236%
NNPHR [pp-24] | 47.1 ±6.7^d % | 41.4 ± 2.2^d % | 15.0 ± 0.6^h % | reduction in ACE inhibitory activity after intestinal digestion simulation [2, 4]: 68%
TFAPGF [pp-45] | 41.9 ± 6.9^d % | 74.3 ± 2.2^b % | 17.9 ± 1.8^g % | increase in ACE inhibitory activity due to cleavage by pepsin [2, 4]: 77%
TGDTGR [pp-6] | 3.9 ± 5.5^k % | 3.9 ± 1.3^k % | 4.2 ± 1.3^k % | –
TGDTGRQH [pp-4] | 16.5 ± 2.1^g % | 18.0 ± 2.9^g % | 33.6 ± 1.2^f % | increase in ACE inhibitory activity after intestinal digestion simulation [2, 4]: 103%

— publication PMC10288869, “Release of an encrypted, highly potent ACE-inhibitory peptide by enzymatic hydrolysis of moth bean (Vigna aconitifolia) protein” (Frontiers in Nutrition, 2023)
